Test results: patent US7172862B2, “FBL2-specific agents as modulators of Flaviviridae RNA replication” (Board of Regents, The University of Texas System, priority 2005, dated 2007)

Assays:
[1] = test system: HCV RNA replication; conditions: cited from earlier work; for overcoming of the inhibition of HCV RNA replication by lovastatin: added with lovastatin
[2] = test system: wild-type FBL2; experiment: Subcellular fractionation (cytosol/membrane) and immunoblot of transfected wild-type FBL2 in CHO-7 cells; format: cell-based; conditions: CHO-7 cells transfected with Myc-tagged wild-type FBL2; immunoblot anti-Myc
Method: (§1) Since prenylation of proteins normally facilitates their membrane association, we compared the localization of wild-type FBL2 and the mutant FBL2 that cannot be prenylated. CHO-7 cells transfected with a plasmid encoding NH2-terminal Myc-tagged wild-type FBL2 or mutant FBL2(C420S) were treated either with GGTI-286, a drug that inhibits both geranylgeranylation and farnesylation, or with FPTI-III, a drug that inhibits only farnesylation (Ye et al., 2003). Cells were fractionated into cytosol and membrane fractions, and immunoblotted with monoclonal anti-Myc IgG-9E10.

[3] = test system: HCV RNA; experiment: HCV RNA level / replication in Huh7-HP replicon cells; format: cell-based; conditions: drug treatment
Excerpt: Further evidence that FBL2 is required for HCV RNA replication was obtained in experiments in which the level of FBL2 mRNA was reduced by transfection with duplex siRNA. An siRNA sequence targeting human FBL2 and having a sequence corresponding to positions 40-60 relative to the first nucleotide start codon, was transfected into Huh7-HP cells with TransMessenger transfection reagent (Qiagen) according to the manufacturer's protocol. […] We confirmed that these cells resemble the other HCV replicon cell lines in that HCV replication is inhibited by treatment with lovastatin (Ye et al., 2003) or an inhibitor of GGTase-I, GGTI-286. The NS5A derived from these cells interacts with FBL2. siRNA targeting FBL2 was and produced a 70% knockdown of FBL2 mRNA, an effect that was not observed when the cells were treated with a control siRNA containing 6 mismatched nucleotides.

[4] = test system: mutant FBL2(C420S); experiment: Subcellular fractionation (cytosol/membrane) and immunoblot of transfected mutant FBL2(C420S) in CHO-7 cells; format: cell-based; conditions: CHO-7 cells transfected with Myc-tagged FBL2(C420S)
Method: as §1

[5] = test system: HCV RNA replicon; experiment: HCV RNA level in Huh7-K2040 replicon cells after transfection of FBL2 plasmids; format: cell-based; conditions: at least 80% of cells transfected
Excerpt: FBL2(67-423), which lacks an F-box, is likely to be nonfunctional, yet it still binds to NS5A. We therefore considered the possibility that overexpression of FBL2(67-423) may inhibit HCV RNA replication in a dominant-negative fashion by sequestering NS5A and preventing it from interacting with endogenous functional FBL2. To test this hypothesis, we transfected plasmids encoding wild-type and various mutant versions of FBL2 into Huh7-K2040 cells that harbor the HCV RNA replicon. As described above, we included only those experiments in which at least 80% of the cells were transfected. […] Importantly, transfected FBL2(67-423; C420S), which cannot bind to NS5A, had no effect on HCV RNA levels.

[6] = test system: NS5A; conditions: Huh7 cells; anti-Flag pull-down of NS5A, anti-Myc blot
Excerpt: To determine the components of FBL2 that are required for interaction with the NH2-terminal half of NS5A, we made plasmids encoding the following proteins: NH2-terminal Myc-tagged wild-type FBL2, FBL2 with its CAAX box mutated so that it cannot be geranylgeranylated (C420S), FBL2 with its NH2-terminal F-box deleted (FBL2(67-423)), and FBL2 with both its F-box deleted and its CAAX box mutated (FBL2 67-423, C420S). These plasmids were transfected into Huh7 cells together with a plasmid encoding Flag and HA-tagged NS5A. Cell extracts were immunoprecipitated with anti-Flag beads to pull down NS5A and blotted with anti-HA and anti-Myc for detection of transfected NS5A and FBL2, respectively.

[7] = test system: West Nile virus replicon; experiment: West Nile virus replicon RNA level in Huh7-WNV-2 cells after transfection of FBL2 plasmids; format: cell-based; conditions: conditions reducing HCV RNA by 75%

Molecule: CC(C)=CCCC(C)=CCCC(C)=CCO [farnesol]
- overcoming of the inhibition of HCV RNA replication by lovastatin [1]: not

Molecule: FPTI-III
- localization of wild-type FBL2 in cytosol and membrane fractions [2]: not

Molecule: CC[C@H](C)C(=O)O[C@H]1C[C@@H](C)C=C2C=C[C@H](C)[C@H](CC[C@@H]3C[C@@H](O)CC(=O)O3)[C@H]21 [lovastatin]
- HCV replication [3]: inhibited
- HCV RNA replication ([1]; Huh7 cells): disrupted

Molecule: CC(C)=CCC/C(C)=C/CC/C(C)=C/CC/C(C)=C/CO [geranylgeraniol]
- overcoming of the inhibition of HCV RNA replication by lovastatin [1]: overcome

Molecule: COC(=O)[C@H](CC(C)C)NC(=O)c1ccc(NC[C@@H](N)CS)cc1-c1ccccc1 [GGTI-286]
- HCV replication [3]: inhibited
- localization of wild-type FBL2 in cytosol and membrane fractions [2]: distributed equally in cytosol and membrane fractions
- subcellular localization of the mutant FBL2 that lacks a CAAX motif [4]: did not change

B1: FBL2(50-423): alternative FBL2 N-terminal truncation (protein, UniProt Q9UKC9 50-423, looked up, fragment)
chain: SNWQRIDLFNFQTDVEGRVVENISKRCGGFLRKLSLRGCIGVGDSSLKTFAQNCRNIEHLNLNGCTKITDSTCYSLSRFCSKLKHLDLTSCVSITNSSLKGISEGCRNLEYLNLSWCDQITKDGIEALVRGCRGLKALLLRGCTQLEDEALKHIQNYCHELVSLNLQSCSRITDEGVVQICRGCHRLQALCLSGCSNLTDASLTALGLNCPRLQILEAARCSHLTDAGFTLLARNCHELEKMDLEECILITDSTLIQLSIHCPKLQALSLSHCELITDDGILHLSNSTCGHERLRVLELDNCLLITDVALEHLENCRGLERLELYDCQQVTRAGIKRMRAQLPHVKVHAYFAPVTPPTAVAGSGQRLCRCCVIL
- reduction of the level of HCV RNA [5]: dominant-negative affects

B2: FBL2(67-423): FBL2 with its NH2-terminal F-box deleted; dominant-negative for HCV RNA replication (protein, UniProt Q9UKC9 67-423, looked up, fragment)
chain: RVVENISKRCGGFLRKLSLRGCIGVGDSSLKTFAQNCRNIEHLNLNGCTKITDSTCYSLSRFCSKLKHLDLTSCVSITNSSLKGISEGCRNLEYLNLSWCDQITKDGIEALVRGCRGLKALLLRGCTQLEDEALKHIQNYCHELVSLNLQSCSRITDEGVVQICRGCHRLQALCLSGCSNLTDASLTALGLNCPRLQILEAARCSHLTDAGFTLLARNCHELEKMDLEECILITDSTLIQLSIHCPKLQALSLSHCELITDDGILHLSNSTCGHERLRVLELDNCLLITDVALEHLENCRGLERLELYDCQQVTRAGIKRMRAQLPHVKVHAYFAPVTPPTAVAGSGQRLCRCCVIL
- co-precipitation with NS5A [6]: co-precipitated
- change in the level of West Nile virus replicon RNA [7]: no significant change

B3: FBL2(67-423; C420S): FBL2 with both its F-box deleted and its CAAX box mutated (protein, UniProt Q9UKC9 67-423, looked up, fragment C420S)
chain: RVVENISKRCGGFLRKLSLRGCIGVGDSSLKTFAQNCRNIEHLNLNGCTKITDSTCYSLSRFCSKLKHLDLTSCVSITNSSLKGISEGCRNLEYLNLSWCDQITKDGIEALVRGCRGLKALLLRGCTQLEDEALKHIQNYCHELVSLNLQSCSRITDEGVVQICRGCHRLQALCLSGCSNLTDASLTALGLNCPRLQILEAARCSHLTDAGFTLLARNCHELEKMDLEECILITDSTLIQLSIHCPKLQALSLSHCELITDDGILHLSNSTCGHERLRVLELDNCLLITDVALEHLENCRGLERLELYDCQQVTRAGIKRMRAQLPHVKVHAYFAPVTPPTAVAGSGQRLCRCSVIL
- co-precipitation with NS5A [6]: abrogated binding
- reduction of the level of HCV RNA [5]: no effect

B4: wild-type FBL2: NH2-terminal Myc-tagged wild-type FBL2 expressed from a transfected plasmid (protein, UniProt Q9UKC9 1-423, looked up)
F-box/LRR-repeat protein 2: MVFSNNDEGLINKKLPKELLLRIFSFLDIVTLCRCAQISKAWNILALDGSNWQRIDLFNFQTDVEGRVVENISKRCGGFLRKLSLRGCIGVGDSSLKTFAQNCRNIEHLNLNGCTKITDSTCYSLSRFCSKLKHLDLTSCVSITNSSLKGISEGCRNLEYLNLSWCDQITKDGIEALVRGCRGLKALLLRGCTQLEDEALKHIQNYCHELVSLNLQSCSRITDEGVVQICRGCHRLQALCLSGCSNLTDASLTALGLNCPRLQILEAARCSHLTDAGFTLLARNCHELEKMDLEECILITDSTLIQLSIHCPKLQALSLSHCELITDDGILHLSNSTCGHERLRVLELDNCLLITDVALEHLENCRGLERLELYDCQQVTRAGIKRMRAQLPHVKVHAYFAPVTPPTAVAGSGQRLCRCCVIL
modifications: N-terminal Myc tag
notes: NH2-terminal Myc-tagged wild-type FBL2 expressed from a transfected plasmid
- co-precipitation with NS5A [6]: co-precipitated
- reduction of the level of HCV RNA [5]: did not change

B5: FBL2(100-423): alternative FBL2 N-terminal truncation (protein, UniProt Q9UKC9 100-423, looked up, fragment)
chain: AQNCRNIEHLNLNGCTKITDSTCYSLSRFCSKLKHLDLTSCVSITNSSLKGISEGCRNLEYLNLSWCDQITKDGIEALVRGCRGLKALLLRGCTQLEDEALKHIQNYCHELVSLNLQSCSRITDEGVVQICRGCHRLQALCLSGCSNLTDASLTALGLNCPRLQILEAARCSHLTDAGFTLLARNCHELEKMDLEECILITDSTLIQLSIHCPKLQALSLSHCELITDDGILHLSNSTCGHERLRVLELDNCLLITDVALEHLENCRGLERLELYDCQQVTRAGIKRMRAQLPHVKVHAYFAPVTPPTAVAGSGQRLCRCCVIL
- reduction of the level of HCV RNA [5]: dominant-negative affects
